Measurements as given in patent publication US7928137B2, “Meta-benzamidine derivatives as serine protease inhibitors” (Tularik Limited, priority 1997, dated 2011).
One block for each molecule: values may come before it.

Columns and labels:
plasma [1] = assay: Kaolin Activated Partial Thromboplastin Time Test (APTT); type: biochemical; settings: 37°
Procedure: Kaolin Activated Partial Thromboplastin Time Test Protocol
(§1) Venous blood was collected into 3.2% (0.109 m) trisodium citrate vacutainer tubes at 1 volume of anticoagulant to nine volumes of blood.
(§2) The blood cells were separated by centrifugation at 700 g for ten minutes to yield plasma, which was frozen at […] until required.
(§3) To perform the test, 100 μl of plasma was pipetted into in a glass test tube, 1 μl of test compound in DMSO was added, and allowed to warm to 37° over two minutes.
100 μl of APTT reagent resuspended in Owren's buffer (Thrombosis Reference Centre University of Manchester, withington Hospital, Manchester) was added, mixed thoroughly, and 100 μl of prewarmed kaolin suspension in Owren's buffer added.
This mixture was incubated for ten minutes at 37°, with regular gentle mixing by tilting through a 90° angle, three times sequentially at one minute intervals to maintain the kaolin in suspension.
After ten minutes 100 μl of 25 mM calcium chloride solution was added, the suspension redispersed by mixing as above and the time to clot formation recorded.
(§4) Data from a series of observations and test compound concentrations are analysed by a SAS statistical analysis program and a CT2 (Concentration required to double clotting time) for each compound is generated.

plasma [2] = assay: Partial Thromboplastin Time Test (PT, tissue thromboplastin reagent); type: biochemical; settings: Manchester (tissue thromboplasin) reagent, 37°
Procedure: Partial Thromboplastin Time Test Protocol
as §1, §2, §3
100 μl of warm (37°) Manchester (tissue thromboplasin) reagent (Helena Biosciences, UK) was added, allowed to equilibrate for sixty seconds. 100 μl of warm (37°) 25 mM calcium chloride solution was added to initiate clotting.
The test tube was tilted three times through a 90° angle every five seconds to mix the reagents and the time to clot formation recorded.
as §4

thrombin = thrombin (Homo sapiens, UniProt P00734); assay: Enzyme inhibition assay, thrombin (chromogenic substrate pefachrome-TH); settings: for thrombin pKi: room temperature, 0.1M phosphate buffer, pH7.4
trypsin = trypsin (Homo sapiens, UniProt P07477); assay: Enzyme inhibition assay, trypsin (chromogenic substrate pefachrome-TRY); settings: for trypsin pKi: room temperature, 0.1M phosphate buffer, pH7.4
human factor Xa = human factor Xa (Homo sapiens, UniProt P00742); assay: Enzyme inhibition assay, factor Xa (chromogenic substrate pefachrome-FXA); settings: for FXa pKi: room temperature, 0.1M phosphate buffer, pH7.4
Sequence of human factor Xa (P00742 235-488 limits assumed): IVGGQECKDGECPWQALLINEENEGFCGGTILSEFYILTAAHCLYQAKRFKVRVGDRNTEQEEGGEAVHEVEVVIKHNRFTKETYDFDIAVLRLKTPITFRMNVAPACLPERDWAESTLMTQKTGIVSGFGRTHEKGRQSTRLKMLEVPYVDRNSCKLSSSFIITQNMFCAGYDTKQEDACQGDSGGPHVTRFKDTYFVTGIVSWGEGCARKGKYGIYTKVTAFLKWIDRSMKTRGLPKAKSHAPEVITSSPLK
Sequence of human factor Xa (P00742 41-179 partner limits assumed): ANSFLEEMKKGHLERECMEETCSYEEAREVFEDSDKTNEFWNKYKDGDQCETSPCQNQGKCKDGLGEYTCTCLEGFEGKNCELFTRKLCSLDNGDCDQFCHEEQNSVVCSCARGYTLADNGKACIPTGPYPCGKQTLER

Molecule: 3-Amidino-benzoyl-D-phenylglycinyl-D-phenylalanine-N-pyrrolidinamide [Example 66]
APTT CT2 (Concentration required to double clotting time) (plasma [1]): 4.5 µM | PT CT2 (Concentration required to double clotting time) (plasma [2]): 4.6 µM | thrombin pKi (thrombin): 6.66 | trypsin pKi (trypsin): 6.55 | FXa pKi (human factor Xa): 6.94

Molecule: N=C(N)c1cccc(C(=O)N[C@@H](C(=O)OCCC2CCN(C(=N)N)CC2)c2ccccc2)c1 [Example 87, 3-Amidino-benzoyl-D-phenylglycine-2-(N-amidino-4-piperidinyl) ethyl ester]
APTT CT2 (Concentration required to double clotting time) (plasma [1]): 14 µM | PT CT2 (Concentration required to double clotting time) (plasma [2]): 4.2 µM | thrombin pKi (thrombin): 5.10 | Ki (trypsin): 1290 nM | Ki (human factor Xa): 24 nM

Molecule: N=C(N)c1cccc(C(=O)N[C@@H](C(=O)N2CCC(C(=O)c3ccccc3)CC2)c2ccccc2)c1 [Example 63, 3-Amidino-benzoyl-D-phenylglycine-4-benzoyl piperidinamide]
PT CT2 (Concentration required to double clotting time) (plasma [2]): 3.7 µM | Ki (thrombin): 1100 nM | Ki (trypsin): 288 nM

Molecule: 3-Amidino-benzoyl-D-phenylglycinyl-D-2-naphthylalaninyl-glycine [Example 31]
APTT CT2 (Concentration required to double clotting time) (plasma [1]): 3.7 µM | PT CT2 (Concentration required to double clotting time) (plasma [2]): 3.2 µM | thrombin pKi (thrombin): 6.98 | trypsin pKi (trypsin): 5.56 | FXa pKi (human factor Xa): 6.80

Molecule: 3-Amidino-benzoyl-D-phenylglycinyl-D-2-naphthylalaninyl-D-proline [Example 33]
PT CT2 (Concentration required to double clotting time) (plasma [2]): 7.1 µM | thrombin pKi (thrombin): 6.14 | trypsin pKi (trypsin): 6.39 | FXa pKi (human factor Xa): 7.50

Molecule: 3-Amidino-benzoyl-D-phenylglycinyl-D-2-naphthylalanine amide [Example 36]
APTT CT2 (Concentration required to double clotting time) (plasma [1]): 9.4 µM | PT CT2 (Concentration required to double clotting time) (plasma [2]): 9 µM | thrombin pKi (thrombin): 6.24 | trypsin pKi (trypsin): 6.16 | FXa pKi (human factor Xa): 7.12

Molecule: 3-Amidino-benzoyl-D-phenylglycinyl-D-2-naphthylalaninyl N-methylglycine [Example 32]
APTT CT2 (Concentration required to double clotting time) (plasma [1]): 7.4 µM | PT CT2 (Concentration required to double clotting time) (plasma [2]): 5.6 µM | thrombin pKi (thrombin): 6.09 | trypsin pKi (trypsin): 5.65 | FXa pKi (human factor Xa): 7.39

Molecule: N=C(N)c1cccc(C(=O)NC(C(=O)NCC2CCC(CN)CC2)c2ccc3ccccc3c2)c1 (racemic) [Example 12, 3-Amidino-benzoyl-DL-2-naphthylglycine 4-aminomethylcyclohexyl methylamide]
APTT CT2 (Concentration required to double clotting time) (plasma [1]): 6.5 µM | PT CT2 (Concentration required to double clotting time) (plasma [2]): 3.4 µM | Ki (thrombin): 5370 nM | Ki (trypsin): 794 nM | Ki (human factor Xa): 407 nM

Molecule: N=C(N)c1cccc(C(=O)N[C@@H](C(=O)NCc2cccc3ccccc23)c2ccccc2)c1 [Example 65, 3-Amidino-benzoyl-D-phenylglycine-1-naphthylmethylamide]
Ki (thrombin): 1170 nM | Ki (trypsin): 1620 nM | Ki (human factor Xa): 64.6 nM

Molecule: Cc1ccc(CNC(=O)[C@H](NC(=O)c2cccc(C(=N)N)c2)c2ccccc2)cc1 [Example 64, 3-Amidino-benzoyl-D-phenylglycine-4-methylbenzylamide]
APTT CT2 (Concentration required to double clotting time) (plasma [1]): 7.6 µM | PT CT2 (Concentration required to double clotting time) (plasma [2]): 8.3 µM | thrombin pKi (thrombin): 5.72 | Ki (trypsin): 1230 nM | Ki (human factor Xa): 87.1 nM

Continued, in another order:

Ki (thrombin): 4790 nM | Ki (trypsin): 2570 nM | Ki (human factor Xa): 97.7 nM
Molecule: N=C(N)c1cccc(C(=O)N[C@@H](C(=O)NC2C3CC4CC(C3)CC2C4)c2ccccc2)c1 (stereo partly drawn) [Example 68, 3-Amidino-benzoyl-D-phenylglycine-2adamantylamide]
PT CT2 (Concentration required to double clotting time) (plasma [2]): 17 µM

Ki (thrombin): 1020 nM | Ki (trypsin): 245 nM | Ki (human factor Xa): 14.1 nM
Molecule: N=C(N)c1ccc(N)c(C(=O)N[C@@H](C(=O)NCC2CCC(CN)CC2)c2ccccc2)c1 (mixture of isomers) [Example 89, 2-Amino-5-amidinobenzoyl-D-phenylglycine-4-amlnomethylcyclohexyl methylamide]

Ki (thrombin): 6920 nM | Ki (trypsin): 1860 nM | Ki (human factor Xa): 269 nM
Molecule: C[C@@H](NC(=O)[C@H](NC(=O)c1cccc(C(=N)N)c1)c1ccccc1)c1cccc2ccccc12 [Example 80, 3-Amidino-benzoyl-D-phenylglycine-R-1-(1-naphthyl)ethylamide]

Ki (thrombin): 17000 nM | Ki (trypsin): 1450 nM | Ki (human factor Xa): 162 nM
Molecule: CC(C)[C@@H](NC(=O)[C@H](NC(=O)c1cccc(C(=N)N)c1)c1ccccc1)C(N)=O [Example 37, 3-Amidino-benzoyl-D-phenylglycinyl-D-valine amide]
APTT CT2 (Concentration required to double clotting time) (plasma [1]): 36 µM | PT CT2 (Concentration required to double clotting time) (plasma [2]): 15 µM

Ki (thrombin): 9120 nM | Ki (trypsin): 2450 nM | Ki (human factor Xa): 10.5 nM
Molecule: CC(=N)N1CCC(CCOC(=O)[C@H](NC(=O)c2cccc(C(=N)N)c2)c2ccccc2)CC1 [Example 84, 3-Amidino-benzoyl-D-phenylglycine-2-(N-acetimino-4-piperidinyl) ethyl ester]
APTT CT2 (Concentration required to double clotting time) (plasma [1]): 5.8 µM | PT CT2 (Concentration required to double clotting time) (plasma [2]): 1.9 µM
